The values below come from ChEMBL document CHEMBL2424595, “Substituted pyrrolo[2,3-d]pyrimidines as Cryptosporidium hominis thymidylate synthase inhibitors” (Bioorg Med Chem Lett, 2013).

Active and inactive are the calls of the source. The rule behind the calls is not given here.

In general, IC50 refers to the concentration that inhibits the measured activity by half. A high value points to weaker potency in that assay. Usually Ki stands for the equilibrium dissociation constant of an inhibitor or competing ligand from its target.

A short description of experiment [1]: Inhibition of Cryptosporidium hominis thymidylate synthase.
Another experiment deals with Cryptosporidium hominis. The experiment is described as follows: Inhibition of Cryptosporidium hominis DHFR.
Experiment [2] addresses Thymidylate synthase (Homo sapiens) (UniProt P04818). As to the kind of experiment: Inhibition of human thymidylate synthase.

Thymidylate synthase (Homo sapiens), sequence (P04818 2-313 limits assumed): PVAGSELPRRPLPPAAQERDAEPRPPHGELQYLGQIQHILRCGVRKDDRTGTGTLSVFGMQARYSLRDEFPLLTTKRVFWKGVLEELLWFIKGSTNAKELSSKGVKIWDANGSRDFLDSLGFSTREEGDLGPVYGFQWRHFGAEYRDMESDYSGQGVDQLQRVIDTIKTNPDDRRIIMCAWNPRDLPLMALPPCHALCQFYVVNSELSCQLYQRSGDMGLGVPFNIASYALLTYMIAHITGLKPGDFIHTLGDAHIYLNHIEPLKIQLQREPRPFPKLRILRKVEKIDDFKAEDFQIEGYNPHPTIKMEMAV

In the case of `Nc1nc2[nH]cc(CCCCCc3ccc(C(=O)N[C@@H](CCC(=O)O)C(=O)O)cc3)c2c(=O)[nH]1`, half-maximal inhibition in experiment [1] (IC50) was put at 31100 nM.
With `Nc1nc2[nH]cc(CCCc3ccc(C(=O)N[C@@H](CCC(=O)O)C(=O)O)cc3)c2c(=O)[nH]1`, the IC50 in experiment [1] is 2440 nM.
Same read-out and setting: the result for `Nc1nc2[nH]cc(Cc3ccc(C(=O)N[C@@H](CCC(=O)O)C(=O)O)cc3)c2c(=O)[nH]1` reads 380 nM; that for `Nc1nc2[nH]cc(CCc3ccc(C(=O)N[C@@H](CCC(=O)O)C(=O)O)cc3)c2c(=O)[nH]1` [PEMETREXED], 2090 nM.
Take `Nc1nc2[nH]cc(Cc3ccc(C(=O)N[C@@H](CCC(=O)O)C(=O)O)s3)c2c(=O)[nH]1`: the inhibition result (in the experiment with Cryptosporidium hominis; in experiment [2]) was “Active” throughout. Moreover, in experiment [1], the IC50 was 30 nM.
As for `Cc1[nH]c2nc(N)[nH]c(=O)c2c1Sc1ccc(C(=O)N[C@@H](CCC(=O)O)C(=O)O)c(Cl)c1`, the inhibition entry in the experiment on Cryptosporidium hominis is “Active”. Also, the inhibition result in experiment [2] is “Active”. In experiment [1], this compound had an IC50 of 10 nM and a Ki of 8.83 nM.
